Earlier results as cited in patent US9561225B2, “Pharmaceutical formulation containing opioid agonist, opioid antagonist and gelling agent” (Purdue Pharma L.P., priority 2001, dated 2017).

What was measured:
[1] = after oral administration
[2] = test system: morphine-like opioid agonist / heroin effects

O=C1CC[C@@]2(O)[C@H]3Cc4ccc(O)c5c4[C@@]2(CCN3CC2CC2)[C@H]1O5 [naltrexone]
duration of action [1]: ~24 h | time of absorption (following oral administration): ≤ 1 h | protein binding (in vivo): approximately 21%

C[C@H]1[C@H]2Cc3ccc(O)cc3[C@]1(C)CCN2CC1CC1 [cyclazocine]
duration of action [1]: ~24 h

C=CCN1CC[C@]23c4c5ccc(O)c4O[C@H]2C(=O)CC[C@@]3(O)[C@H]1C5 [naloxone]
block of the effect of 25 mg of heroin ([2]; 1 mg intravenously): completely block | effect on morphine-like opioid agonist effects ([2]; 0.4-0.8 mg intramuscularly or intravenously in man): prevent or promptly reverse the effects of morphine-like opioid agonist
